Test results: publication PMC7673538 (PLoS Biology, 2020)
Values joined by “and” are separate entries in the source; they are usually repeats but may differ in a detail not shown here. Identical values can stand only once. Like-named read-outs stand apart in the source and are kept apart here.

What was measured:
HRV-A2 = experiment: microbe, parasite or virus in culture; format: cell-based, human rhinovirus
human DAT = molecular target: T1, human DAT (Homo sapiens, UniProt Q01959); format: cell-based; conditions: for DAT, Mean (Figure 8B): Control = 100
T1 construct: expressed in transfected cells; host or cells: HEK293 (gift of Dr. Hoener, F. Hoffmann-La Roche)

PV-1 = experiment: microbe, parasite or virus in culture; format: cell-based, poliovirus 1
EV-D68 = experiment: microbe, parasite or virus in culture; format: cell-based, enterovirus D68
CV-A24 = experiment: microbe, parasite or virus in culture; format: cell-based, coxsackievirus A24; conditions: Enterovirus C, CVA24, HeLa R19, read-out: EC50 CV-A24
human SERT = molecular target: T2, human SERT (Homo sapiens, UniProt P31645); format: cell-based; conditions: for SERT, Mean (Figure 8B): Control = 100.00; for SERT, Mean as % (Figure 8B): Control = 100%
T2 construct: expressed in transfected cells; host or cells: HEK293 (gift of Dr. Hoener, F. Hoffmann-La Roche)

CV-A24v = experiment: microbe, parasite or virus in culture; format: cell-based, coxsackievirus A24v

T1 sequence (Q01959 whole entry): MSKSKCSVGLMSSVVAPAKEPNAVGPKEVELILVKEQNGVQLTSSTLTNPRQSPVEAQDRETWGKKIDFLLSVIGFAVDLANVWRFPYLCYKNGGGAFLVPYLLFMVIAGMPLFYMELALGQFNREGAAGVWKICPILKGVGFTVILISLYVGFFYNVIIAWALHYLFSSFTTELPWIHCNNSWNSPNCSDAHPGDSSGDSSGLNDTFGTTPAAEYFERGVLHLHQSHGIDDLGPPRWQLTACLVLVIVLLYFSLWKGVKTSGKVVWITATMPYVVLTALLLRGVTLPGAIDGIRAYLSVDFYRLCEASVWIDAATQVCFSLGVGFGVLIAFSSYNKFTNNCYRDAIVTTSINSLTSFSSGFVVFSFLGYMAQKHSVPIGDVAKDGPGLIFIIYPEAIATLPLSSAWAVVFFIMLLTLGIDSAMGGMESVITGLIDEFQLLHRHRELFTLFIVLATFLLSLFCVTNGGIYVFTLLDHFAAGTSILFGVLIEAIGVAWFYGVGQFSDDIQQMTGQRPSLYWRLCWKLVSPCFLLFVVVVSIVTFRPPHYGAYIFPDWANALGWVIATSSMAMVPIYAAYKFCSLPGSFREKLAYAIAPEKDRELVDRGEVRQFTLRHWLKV
T2 sequence (P31645 whole entry): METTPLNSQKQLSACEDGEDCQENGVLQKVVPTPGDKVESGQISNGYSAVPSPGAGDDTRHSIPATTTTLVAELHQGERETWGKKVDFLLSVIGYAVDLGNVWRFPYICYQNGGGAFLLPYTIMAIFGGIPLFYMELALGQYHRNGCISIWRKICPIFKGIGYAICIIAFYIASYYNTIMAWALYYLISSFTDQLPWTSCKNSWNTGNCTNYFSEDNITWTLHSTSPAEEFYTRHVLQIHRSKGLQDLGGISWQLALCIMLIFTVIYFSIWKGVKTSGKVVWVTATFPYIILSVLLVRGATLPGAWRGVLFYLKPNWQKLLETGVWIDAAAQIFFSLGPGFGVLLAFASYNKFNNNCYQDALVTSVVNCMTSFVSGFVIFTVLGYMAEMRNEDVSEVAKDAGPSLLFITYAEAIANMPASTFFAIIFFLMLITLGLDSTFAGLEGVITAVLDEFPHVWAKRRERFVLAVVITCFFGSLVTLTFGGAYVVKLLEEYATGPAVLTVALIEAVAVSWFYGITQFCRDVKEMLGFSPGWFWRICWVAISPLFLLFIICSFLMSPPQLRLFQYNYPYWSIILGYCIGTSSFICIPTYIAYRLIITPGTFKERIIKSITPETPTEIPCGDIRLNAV

Structure (SMILES): O=C(c1cc[nH]c1)N(Cc1ccc(F)cc1)c1ccccc1 [Compound 12b, N-(4-Fluorobenzyl)-N-phenyl-1H-pyrrole-3-carboxamide]
- Figure 7 dose-response raw data, HRV-A2 (triplicate values) (HRV-A2; Concentration 0.0046 µM): 14.2402 and 14.6225 and 13.0933
- Figure 7 dose-response raw data, HRV-A2 (triplicate values) (HRV-A2; Concentration 0.0137 µM): 14.2402 and 14.6225 and 13.0933
- Figure 7 dose-response raw data, HRV-A2 (triplicate values) (HRV-A2; Concentration 0.0412 µM): 15.1004 and 21.3125 and 13.3801
- Figure 7 dose-response raw data, HRV-A2 (triplicate values) (HRV-A2; Concentration 0.1235 µM): 12.6155 and 13.1889 and 12.7111
- Figure 7 dose-response raw data, HRV-A2 (triplicate values) (HRV-A2; Concentration 0.3704 µM): 13.0933 and 13.1889 and 13.7623
- Figure 7 dose-response raw data, HRV-A2 (triplicate values) (HRV-A2; Concentration 1.1111 µM): 12.6155 and 14.1446 and 14.4314
- Figure 7 dose-response raw data, HRV-A2 (triplicate values) (HRV-A2; Concentration 3.3333 µM): 83.2845 and 84.4313 and 84.7181
- Figure 7 dose-response raw data, HRV-A2 (triplicate values) (HRV-A2; Concentration 11.1111 µM): 99.5652 and 104.147 and 110.034
- Figure 7 dose-response raw data, HRV-A2 (triplicate values) (HRV-A2; Concentration 33.3333 µM): 100.093 and 102.52 and 105.578
- Figure 7 dose-response raw data, HRV-A2 (triplicate values) (HRV-A2; Concentration 100 µM): 100.093 and 102.52 and 105.578
- EC50 (HRV-A2; Human rhinovirus sp., HRV2 / HRVA2, HeLa R19, read-out: Table in Figure 7A, HRV2, AVERAGE): 2750 nM
- EC50 (HRV-A2; Human rhinovirus sp., HRV2 / HRVA2, HeLa R19, read-out: Table in Figure 7A, HRV2, exp1-exp3): 2760 nM
- EC50 (HRV-A2; read-out: Table in Figure 7A, HRV2, exp1-exp3): 3210 nM and 2280 nM
- DAT, Mean (Figure 8B) (human DAT; 1µM): 98.697
- DAT, Mean as % (Figure 8B) (human DAT; 1µM, Control = 100%): 103%
- DAT, Mean (Figure 8B) (human DAT; 100µM): 90.1253
- inhibition of DAT function (in words) (human DAT; HEK293 cells expressing human DAT, 1 μM or 100 μM): neither 12a, 19b, 19d, nor the combined compound 12b inhibited
- Figure 7 dose-response raw data, PV-1 (triplicate values) (PV-1; Concentration 0.0046 µM): 11.045 and 11.5939
- Figure 7 dose-response raw data, PV-1 (triplicate values) (PV-1; Concentration 0.0137 µM): 11.045 and 11.5939
- Figure 7 dose-response raw data, PV-1 (triplicate values) (PV-1; Concentration 0.0412 µM): 11.045 and 11.8683 and 12.5543
- Figure 7 dose-response raw data, PV-1 (triplicate values) (PV-1; Concentration 0.1235 µM): 9.9474 and 11.3195 and 12.0055
- Figure 7 dose-response raw data, PV-1 (triplicate values) (PV-1; Concentration 0.3704 µM): 13.3775 and 12.0055 and 11.7311
- Figure 7 dose-response raw data, PV-1 (triplicate values) (PV-1; Concentration 1.1111 µM): 20.2378 and 15.8472 and 16.3961
- Figure 7 dose-response raw data, PV-1 (triplicate values) (PV-1; Concentration 3.3333 µM): 109.849 and 103.263 and 104.772
- Figure 7 dose-response raw data, PV-1 (triplicate values) (PV-1; Concentration 11.1111 µM): 100.535 and 102.561 and 105.184
- Figure 7 dose-response raw data, PV-1 (triplicate values) (PV-1; Concentration 33.3333 µM): 94.7887 and 93.7377 and 106.219
- Figure 7 dose-response raw data, PV-1 (triplicate values) (PV-1; Concentration 100 µM): 94.2632 and 96.1025 and 105.824
- EC50 (PV-1; Enterovirus C, HeLa R19, read-out: Table in Figure 7A, Polio, AVERAGE): 1390 nM
- EC50 (PV-1; Enterovirus C, HeLa R19, read-out: Table in Figure 7A, Polio, exp1-exp3): 1760 nM
- EC50 (PV-1; read-out: Table in Figure 7A, Polio, exp1-exp3): 1420 nM and 990 nM
- Figure 7 dose-response raw data, EV-D68 (triplicate values) (EV-D68; Concentration 0.001 µM): 11.1333 and 12.4782 and 12.9265
- Figure 7 dose-response raw data, EV-D68 (triplicate values) (EV-D68; Concentration 0.0046 µM): 12.1793 and 12.9265 and 15.0187
- Figure 7 dose-response raw data, EV-D68 (triplicate values) (EV-D68; Concentration 0.0137 µM): 11.1333 and 12.4782 and 12.9265
- Figure 7 dose-response raw data, EV-D68 (triplicate values) (EV-D68; Concentration 0.0412 µM): 10.386 and 11.4321 and 12.9265
- Figure 7 dose-response raw data, EV-D68 (triplicate values) (EV-D68; Concentration 0.1235 µM): 107.007 and 105.506 and 109.76
- Figure 7 dose-response raw data, EV-D68 (triplicate values) (EV-D68; Concentration 0.3704 µM): 98.999 and 100.501 and 112.888
- Figure 7 dose-response raw data, EV-D68 (triplicate values) (EV-D68; Concentration 1.1111 µM): 104.38 and 102.252 and 111.637
- Figure 7 dose-response raw data, EV-D68 (triplicate values) (EV-D68; Concentration 3.3333 µM): 103.504 and 113.389
- Figure 7 dose-response raw data, EV-D68 (triplicate values) (EV-D68; Concentration 10 µM): 95.6204 and 100.626 and 112.763
- EC50 (EV-D68; Enterovirus D, EVD68, HeLa R19, read-out: EC50 EV-D68): 86 ± 7.1 nM
- EC50 (EV-D68; Enterovirus D, EVD68, HeLa R19, read-out: Table in Figure 7A, EVD68, AVERAGE): 85.7 nM
- EC50 (EV-D68; Enterovirus D, EVD68, HeLa R19, read-out: Table in Figure 7A, EVD68, exp1-exp3): 88 nM
- EC50 (EV-D68; read-out: Table in Figure 7A, EVD68, exp1-exp3): 93 nM and 76 nM
- EC50 (CV-A24): 1330 ± 240 nM
- SERT, Mean (Figure 8B) (human SERT; 1µM): 88.76
- SERT, Mean as % (Figure 8B) (human SERT; 1µM): 89%
- SERT, Mean (Figure 8B) (human SERT; 100µM): 102.47
- SERT, Mean as % (Figure 8B) (human SERT; 100µM): 102%
- inhibition of SERT-mediated uptake (in words) (human SERT; HEK293 cells expressing human SERT, 1 and 100 μM): neither 12a, 19b, 19d, nor the combined compound 12b inhibited
- Figure 7 dose-response raw data, CV-A24v (triplicate values) (CV-A24v; Concentration 0.0046 µM): 11.045 and 11.5939
- Figure 7 dose-response raw data, CV-A24v (triplicate values) (CV-A24v; Concentration 0.0137 µM): 14.0988 and 16.3593 and 16.4783
- Figure 7 dose-response raw data, CV-A24v (triplicate values) (CV-A24v; Concentration 0.0412 µM): 14.0988 and 16.3593 and 16.4783
